Assays:
[1] = tested on: infiltration of neutrophil; experiment: zymosan peritonitis model; format: in vivo, mouse C57BL/6J; conditions: for suppressing effect for other cell group (macrophage etc.): 10 ng (FIG. 4C); for neutrophil suppressing activity compared with dexamethasone: 10 ng compound versus 10 μg dexamethasone (FIG. 4A, 4C); for dose dependence of activity in peritonitis model: Example 4, 1 ng or 10 ng/mouse (FIG. 4A(b), 4D); for activities of suppressing infiltration of neutrophil at an inflammation initial stage: low dose of 10 ng (FIG. 4C)
Protocol: For an inflammation model, zymosan peritonitis elicited by intraperitoneally administering zymosan being a cell wall component of yeast was used. Since an exudate in an abdominal cavity can be recovered, the present model is a model suitable for analyzing cytokines and eicosanoids.
Zymosan A (Wako Pure Chemical Industries, Ltd.) was suspended in a physiological saline to 1 mg/mL, and the suspension was warmed at 37° C. for 30 minutes. Thereafter, this zymosan A solution was vortexed, and returned to room temperature. The compound synthesized in the previous Example, 17,18-diHEPE was taken into a 1.5 mL tube, and a solvent was vaporized with nitrogen to complete dryness and, thereafter, a physiological saline was added to dissolve it. Then, 100 μL of this compound solution was injected (1 ng or 10 ng/mouse) through a tail vein of C57BL/6J mouse (7 weeks old, mail: CLEA Japan, Inc.). As a control, a group in which only a physiological saline was injected, and a group in which dexamethasone (10 μg/mouse) being an anti-inflammatory steroid was injected, were used. After about 2 minutes, 1 mL of a zymosan A solution was intraperitoneally administered. After 2 hours, cells exuded into an abdominal cavity were recovered into a tube with a PBS, and the cell number was counted. Thereafter, this tube was centrifuged at 1200 rpm and 4° C. for 5 minutes to remove the supernatant, a precipitate (pellet) was suspended in PBS, and a population was analyzed by three-color staining of FACS.
Abdominal cavity cells were adjusted to 2.5×10^6 cells/mL, and 200 μL was placed into a 5 mL round-bottom tube (BDFalcon) (5×10^5 cells/tube). To this tube was added an anti-mouse CD16/CD32 antibody (0.5 mg/mL; BDBiosciences) at 1 μL per tube, and this was incubated at room temperature for 10 minutes. To this tube was added a staining antibody mix (prepared by diluting 1.0 μL of FITC bound anti-mouse F4/80 antibody (0.5 mg/mL; eBiosciences), 0.5 μL of PE bound anti-mouse Ly-6G & Ly-6C antibody (0.2 mg/mL; eBiosciences) and 0.5 μL of PerCP-Cy5.5 bound anti-mouse CD11b antibody (0.2 mg/mL; eBiosciences) in 50 μL of PBS, per sample) at 50 μL/tube, and this was incubated at room temperature for 15 minutes under light shielding. Measurement was performed by FACS Calibur (BDBiosciences). […]

[2] = tested on: neutrophil which have infiltrated into lung; experiment: acute lung damage model (intrabronchial hydrochloric acid); format: in vivo, mouse C57BL/6J; conditions: 10 ng via tail vein; BAL 12 hours after hydrochloric acid (FIG. 4E)
Protocol: One hundred μL of a compound 17,18-diHEPE dissolved in a physiological saline was injected through a tail vein of a C57BL/6J mouse (7 weeks old, male; CLEA Japan, Inc.). After 15 minutes, this mouse was anesthetized by intraperitoneally administering a mixed solution of ketamine (Daiichi Sankyo Propharma) and xylazine (Bayer Medical Ltd.), a trachea was exposed, and 25 μL of hydrochloric acid (pH 1.0, 0.1 N; SIGMA) was administered into a left bronchium. As a control, a group in which only a physiological saline was injected and, after anesthesia, hydrochloric acid was administered into a left bronchium (saline/HCl), and a non-treated group (intact) were used. After 12 hours, this mouse was slaughtered, and bronchial alveolus washing (BAL) was performed with 0.7 mL of PBS two times. The cell number in the BAL solution was counted and a population of cells was quantitated by simple Giemsa staining using a simple Giemsa staining solution Diffquick (Sysmex Corporation).

| SMILES | suppressing effect for other cell group (macrophage etc.) [1] | neutrophil suppressing activity compared with dexamethasone [1] | dose dependence of activity in peritonitis model [1] | activities of suppressing infiltration of neutrophil at an inflammation initial stage [1] | neutrophil-specific infiltration suppressing activity [2] | suppression of infiltration of neutrophil ([1]; 10 ng/mouse via tail vein, abdominal cavity cells recovered 2 hours after zymosan, FACS (FIG. 4A)) | IC40 (dose versus decrease in the neutrophil number) ([1]; calculated from graph FIG. 4F) |
| --- | --- | --- | --- | --- | --- | --- | --- |
| CCC(O)C(O)/C=C/C=C/C=C\C/C=C\C/C=C\CCCC(=O)O (single isomer, unassigned) [peak 5, 17,18-diHEPE] | not recognized | equivalent to 10 μg of dexamethasone | dose-dependent | recognized | – | – | – |
| CCC(O)C(O)/C=C/C=C/C=C\C/C=C\C/C=C\CCCC(=O)O (single isomer, unassigned) [peak 6, 17,18-diHEPE] | not recognized | equivalent to 10 μg of dexamethasone | dose-dependent | recognized | recognized | – | – |
| CCC(O)C(O)/C=C/C=C/C=C\C/C=C\C/C=C\CCCC(=O)O (centres unmarked) [17,18-diHEPE, 17,18-dihydroxyeicosapentaenoic acid] | – | – | – | – | – | about 40% | approximately 8 ng |

— patent US8853437B2, “Anti-inflammatory compounds” (The University of Tokyo, priority 2009, dated 2014)
